Measurements from US5407683A (Research Corporation Technologies, Inc., priority 1992, dated 1995).
Values after ≈ are worked out from the molar mass of the structure shown.

Key:
[1] = nonemulsified form; cited from earlier work
sarcomas = settings: cited from earlier work
[2] = thermal stability of taxol; assay type: physicochemical; settings: 130° C.
Protocol: The process steps can in many cases be performed at about room temperature. […] The process steps should be performed to avoid melting or decomposition of the matrix compound, i.e., the process should be performed at temperatures less than about the melting point or decomposition point of the matrix compound, generally about 140° C. or less. […] Thus preferred temperatures for performing the process steps are about 60° C. to about 130° C.

colon = settings: cited from earlier work
Lewis lung tumor = settings: cited from earlier work
[3] = cited from earlier work
melanoma = settings: cited from earlier work
microtubules = settings: in vitro; cited from earlier work
breast = settings: cited from earlier work
[4] = precipitation of taxol from oil solution under vacuum; assay type: physicochemical; settings: bath temperatures less than 50° to 60° C.
leukemia = settings: cited from earlier work
[5] = solubilization of taxol in squalane oil; assay type: physicochemical; settings: 4.0 mg taxol in 0.400 ml squalane oil, methanol removed
Protocol: The methanol was then removed with heating and nitrogen blanket at about 60° C. for 10 minutes.

CC(=O)O[C@H]1C(=O)[C@@]2(C)[C@H]([C@H](OC(=O)c3ccccc3)[C@]3(O)C[C@H](OC(=O)[C@H](O)[C@@H](NC(=O)c4ccccc4)c4ccccc4)C(C)=C1C3(C)C)[C@]1(OC(C)=O)CO[C@@H]1C[C@@H]2O [Taxol]
degradation in the stomach [1]: degraded in the stomach
activity against sarcomas (sarcomas): active
thermal stability [2]: stable for at least about two hours
activity against colon tumor system (colon): active
activity against Lewis lung tumor system (Lewis lung tumor): active
solubility in vehicle ([3]; ethanol:cremophor EL:isotonic saline (5:5:90)): ≤ 600 µg/mL
solubility in most oils ([3]; safflower, olive and soybean oil): 300 to 600 µg/mL
solubility in soybean oil ([3]; soybean oil): 300 µg/mL (≈ 351 µM)
solubility in triacetin ([3]; triacetin): 30000 µg/mL (≈ 35100 µM)
activity against melanoma (melanoma): active
concentrations that stabilize microtubules, thus disrupting normal cell division (microtubules): 0.1 to 10.0 µg/mL
activity against breast tumor system (breast): active
precipitation from the oil solution [4]: tends to precipitate from the oil solution
activity against leukemia (leukemia): active
solubilization of taxol in squalane oil [5]: completely solubilized
